Source: patent publication US4011390A, “Semi-synthetic aminocyclitol aminoglycoside antibiotics and methods for the preparation thereof” (Schering-Plough Corporation, priority 1974, dated 1977)

What was measured:
Format in all cases: cell-based
Providence = experiment: Activity against resistant strains; settings: gentamicin, sisomicin, tobramycin resistant Providence
Description: (§1) In many instances, bacterial resistance is related to the organism's ability to inactivate the antibacterial agent via enzymatic (biochemical) means. Some species inactivate aminoglycosides antibiotics by acetylating the antibacterial agent, others by phosphorylation and still others by adenylylating. Some strains have several different inactivating capabilities. Further, the inactivation reactions occur at a specific site or sites on the antibacterial agent. We have shown by the compounds of this invention that alteration of sites on the antibiotic molecule not directly involved in inactivation processes can nevertheless frustrate these inactivation processes. […] The tables illustrate that the mutamicins include compounds which are active against strains having different mechanisms of inactivation of gentamicin, sisomicin, kanamycin, neomycin and torbramycin. For example, some mutamicins are effective against strains of E. coli which contain adenylylating R factors such as E. coli W677/R55 and LA290/R55. These E. coli strains are resistant to gentamicin, sisomicin and torbramycin. Some are also effective against gentamicin, tobramycin and kanamycin resistant adenylylating strains of Klebsiella pneumoniae and also kanamycin, neomycin phosphorylating strains of E. coli and Klebsiella pneumoniae. Further, some mutamicins are effective against gentamicin and sisomicin resistant strains of Pseudomonas aeruginosa and gentamicin, sisomicin, tobramycin resistant Providence which is sensitive to kanamycin. Thus, the mutamicins afford a means for combatting strains of bacteria which have already developed a variety of mechanisms for resisting the action of many of the antibiotics known in the art or currently in commercial use.

Klebsiella pneumoniae [1] = experiment: Activity against resistant strains; settings: gentamicin, tobramycin and kanamycin resistant adenylylating strains
Description: as §1

E. coli = experiment: Activity against resistant strains; settings: E. coli W677/R55 and LA290/R55
Description: as §1

Pseudomonas aeruginosa [2] = experiment: Activity against resistant strains; settings: gentamicin and sisomicin resistant strains
Description: as §1

Klebsiella pneumoniae [3] = experiment: Disc test, Bauer-Kirby technique with 10 Mcg. discs
Description: (§2) Disc Test Results (Replicate Tests) With The Mutamicins, Sisomicin and
(§3) Bauer-Kirby Technique^1 With 10 Mcg. Discs
(§4) ^1 Bauer, Kirby, Sherris and Turck, American Journal of Clinical

Escherichia coli = experiment: as above; settings: 10 Mcg. discs
Description: as §2, §3, §4

Staphylococcus aureus = experiment: as above
Description: as §2, §3, §4

Providence 164 = experiment: as above; settings: strain 164
Description: as §2, §3, §4

Bacillus subtilis = experiment: as above; settings: strain ATCC 6633
Description: as §2, §3, §4

Pseudomonas aeruginosa [4] = experiment: as above
Description: as §2, §3, §4

Streptococcus pyogenes = experiment: as above
Description: as §2, §3, §4

## gentamicin [reference compound]
Providence
  activity against resistant Providence: resistant
Klebsiella pneumoniae [1]
  activity against resistant adenylylating strains: resistant
E. coli
  activity against strains containing adenylylating R factors: resistant
Pseudomonas aeruginosa [2]
  activity against resistant strains: resistant
Klebsiella pneumoniae [3]; strain Ad 17
  Zone Size: 22 mm
Klebsiella pneumoniae [3]; strain Ad 18
  Zone Size: 25 mm
Klebsiella pneumoniae [3]; strain Georgetown 3020
  Zone Size: 11 mm
Klebsiella pneumoniae [3]; strain Georgetown 3694
  Zone Size: 13 mm
Escherichia coli; strain 589
  Zone Size: 23 mm
Escherichia coli; strain ATCC 10536
  Zone Size: 28 mm
Escherichia coli; strain JR88
  Zone Size: 11 mm
Escherichia coli; strain JR90
  Zone Size: 0 mm
Escherichia coli; strain LA290/R55
  Zone Size: 12 mm
Escherichia coli; strain Swidinsky 4195
  Zone Size: 23 mm
Escherichia coli; strain W677/R55
  Zone Size: 13 mm
Staphylococcus aureus; strain 59N
  Zone Size: 28 mm
Staphylococcus aureus; strain ATCC 6538P
  Zone Size: 25 mm
Staphylococcus aureus; strain Wood
  Zone Size: 27 mm
Staphylococcus aureus; strain Ziegler
  Zone Size: 26 mm
Providence 164
  Zone Size: 11 mm
Bacillus subtilis
  Zone Size: 31 mm
Pseudomonas aeruginosa [4]; strain Capetown 18
  Zone Size: 12 mm
Pseudomonas aeruginosa [4]; strain D-2
  Zone Size: 23 mm
Pseudomonas aeruginosa [4]; strain St. Michael 413
  Zone Size: 26 mm
Pseudomonas aeruginosa [4]; strain St. Michael 762
  Zone Size: 24 mm
Pseudomonas aeruginosa [4]; strain St. Michael 1262
  Zone Size: 25 mm
Pseudomonas aeruginosa [4]; strain St. Michael 1395
  Zone Size: 26 mm
Pseudomonas aeruginosa [4]; strain Stone 20
  Zone Size: 27 mm
Pseudomonas aeruginosa [4]; strain Stone 39
  Zone Size: 25 mm
Pseudomonas aeruginosa [4]; strain Stone 130
  Zone Size: 12 mm
Pseudomonas aeruginosa [4]; strain Stone 138
  Zone Size: 10 mm
Streptococcus pyogenes; strain B-Cruz
  Zone Size: 16 mm
Streptococcus pyogenes; strain C
  Zone Size: 13 mm
